# Legend:
# [1] = test system: LPS triggered IL-10 secretion in monocytes; test: Monocytes assay: LPS-triggered IL-10 (ELISA); type: cell-based, human; conditions: LPS 200 ng/mL, supernatant after 4 h, maximal fold change vs LPS only
# Method in brief: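 Human CD14+ monocytes, magnetically isolated from buffy-coat PBMCs, were seeded at 100 000 cells/well and preincubated with compound for 1 h at 37° C (0.2% DMSO). LPS was then added at a final 200 ng/mL for 4 h. Supernatant IL-10 was quantified by chemiluminescent sandwich ELISA against a standard curve.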
# IL-10 = test: Mouse LPS-induced endotoxic shock, plasma IL-10; type: in vivo; design: key: +: statistically significant induction of IL-10; −: no effect on the level of IL-10; conditions: p.o., plasma 90 min after LPS challenge
# Protocol: (§1) Injection of lipopolysaccharide (LPS) induces a rapid release of soluble tumour necrosis factor (TNFα) into the periphery. This model was used to assess prospective blockers of TNFα release in vivo.
# (§2) Lipopolysaccharide (LPS) from Escherichia Coli serotype O111:B4 was obtained from Sigma Aldrich (Cat #L2630).
# (§3) BALB/cAnNCrl mice (female, 18-20 g body weight) were obtained from Charles River (Calco, Italy). Mice were kept on a 12 h light/dark cycle. Temperature was maintained at 22±2° C., food and water were provided ad libitum.
# (§4) Mice were dosed once by oral (p.o.) or subcutaneous (sc) route with the tested compound in the appropriate vehicle.
# (§5) At the Tmax of compound, 100 μg of LPS (in H2O) was injected intraperitoneally to mice. A control group was included which comprises administering the vehicle without an LPS challenge.
# (§6) Mice were sacrificed 90 min after LPS challenge and blood was collected in heparinised tubes. Plasma was obtained by centrifugation for 15 min, 2000×g at +4° C. and frozen at −80° C. before cytokine analysis.
# (§7) TNFα and IL-10 were quantified in plasma by AlphaLISA detection kits obtained from PerkinElmer (Massachusetts, USA), Cat4 AL505C and AL502C, respectively.
# (§8) Statistics were performed with Prism 5.03 software (GraphPad) using an ANOVA analysis of variance with Dunnett's post-hoc test versus LPS group.
# (§9) Active compounds were defined as showing a statistically significant decrease in TNFα with or without a statistically significant induction of IL-10
# TNFα = test: Mouse LPS-induced endotoxic shock, plasma TNFα; type: in vivo; design: key: +: statistically significant inhibition of TNFα; −: no effect on the level of TNFα; conditions: p.o., plasma 90 min after LPS challenge
# Protocol: as §1, §2, §3, §4, §5, §6, §7, §8, §9
# [2] = test system: LPS-induced TNFα in monocytes; test: Monocytes assay: LPS-triggered TNFα (ELISA); type: cell-based, human; conditions: LPS 200 ng/mL, supernatant after 4 h
# Method in brief: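 Human CD14+ monocytes from buffy-coat PBMCs (magnetic bead selection) were seeded at 100 000 cells/well and pretreated with compound for 1 h at 37° C (0.2% DMSO). They were then stimulated with 200 ng/mL LPS for 4 h, and supernatant TNFα was measured by chemiluminescent sandwich ELISA as percent inhibition.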
Compound,IL-10 FCmax median [1],"EC50 ([2]; Homo sapiens, Monocyte, 4 h) [nM]",other results
"COc1cc(-c2cnc3cc(OC[C@@H]4COCCO4)ccn23)cc2c1C(=O)N(CC(F)(F)F)CC2 [compound 225, 6-[7-[[(2S)-1,4-dioxan-2-yl]methoxy]imidazo[1,2-a]pyridin-3-yl]-8-methoxy-2-(2,2,2-trifluoroethyl)-3,4-dihydroisoquinolin-1-one]",+++ (>4.5),100 to 1000,IL-10 (IL-10; 3 mg/kg): +; IL-10 (IL-10; 10 mg/kg): +; TNFα (TNFα; 3 mg/kg): +; TNFα (TNFα; 10 mg/kg): +
"COc1cc(-c2cnc3cc(OC[C@H]4COCCO4)ccn23)cc2c1C(=O)N(CC(F)(F)F)CC2 [Cpd 86, 6-[7-[[(2R)-1,4-dioxan-2-yl]methoxy]imidazo[1,2-a]pyridin-3-yl]-8-methoxy-2-(2,2,2-trifluoroethyl)-3,4-dihydroisoquinolin-1-one]",+++ (>4.5),100 to 1000,IL-10 (IL-10; 3 mg/kg): +; IL-10 (IL-10; 10 mg/kg): +; TNFα (TNFα; 3 mg/kg): +; TNFα (TNFα; 10 mg/kg): +
"COc1cc(-c2cnc3cc(OCC4(C)CN(C)C4)ccn23)cc(OC(F)F)c1C(=O)NC1CC1 [compound 220, N-cyclopropyl-2-(difluoromethoxy)-4-[7-[(1,3-dimethylazetidin-3-yl)methoxy]imidazo[1,2-a]pyridin-3-yl]-6-methoxy-benzamide]",+++ (>4.5),100 to 1000,
"CCOC(=O)C1(F)CCN(CCOc2ccn3c(-c4cc(OC)c(C(=O)NC5CC5)c(OC(F)F)c4)cnc3c2)CC1 [compound 390, ethyl 1-[2-[3-[4-(cyclopropylcarbamoyl)-3-(difluoromethoxy)-5-methoxy-phenyl]imidazo[1,2-a]pyridin-7-yl]oxyethyl]-4-fluoro-piperidine-4-carboxylate]",+++ (>4.5),0.1 to 100,
COc1cc(-c2cnc3cc(OCCOCCN4CCCCC4)ccn23)cc(OC(F)F)c1C(=O)NC1CC1 [compound 305],+++ (>4.5),0.1 to 100,
"COc1cc(-c2cnc3cc(OC[C@H]4COCCO4)ccn23)cc2c1C(=O)N(CC(F)F)CC2 [compound 219, 2-(2,2-difluoroethyl)-6-[7-[[(2R)-1,4-dioxan-2-yl]methoxy]imidazo[1,2-a]pyridin-3-yl]-8-methoxy-3,4-dihydroisoquinolin-1-one]",+++ (>4.5),100 to 1000,
"COc1cc(-c2cnc3cc(OCCN4CC(F)(F)C4)ccn23)cc2c1C(=O)N(CC(F)(F)F)CC2 [Cpd 244, 6-[7-[2-(3,3-difluoroazetidin-1-yl)ethoxy]imidazo[1,2-a]pyridin-3-yl]-8-methoxy-2-(2,2,2-trifluoroethyl)-3,4-dihydroisoquinolin-1-one]",+++ (>4.5),100 to 1000,
"COc1cc(-c2cnc3cc(OCCCN4CC(O)C4)ccn23)cc(OC(F)F)c1C(=O)NC1CC1 [Cpd 286, N-cyclopropyl-2-(difluoromethoxy)-4-[7-[3-(3-hydroxyazetidin-1-yl)propoxy]imidazo[1,2-a]pyridin-3-yl]-6-methoxy-benzamide]",++ (>1.5-4.5),100 to 1000,
"COc1cc(-c2cnc3cc(OCC(O)CN4CCOCC4)ccn23)cc(OC(F)F)c1C(=O)NC1CC1 (single isomer, unassigned) [Cpd 387, N-cyclopropyl-2-(difluoromethoxy)-4-[7-(2-hydroxy-3-morpholino-propoxy)imidazo[1,2-a]pyridin-3-yl]-6-methoxy-benzamide]",+++ (>4.5),,EC50 [2]: 0.1 to 100 nM
"COc1cc(-c2cnc3cc(OCCN4CCN(C)CC4)ccn23)cc(OC(F)F)c1C(=O)NC1CC1 [compound 9, N-cyclopropyl-2-(difluoromethoxy)-6-methoxy-4-[7-[2-(4-methylpiperazin-1-yl)ethoxy]imidazo[1,2-a]pyridin-3-yl]benzamide]",+++ (>4.5),0.1 to 100,
"COc1cc(-c2cnc3cc(OCCN4CCOC[C@@H]4C)ccn23)cc(OC(F)F)c1C(=O)NC1CC1 [compound 233, N-cyclopropyl-2-(difluoromethoxy)-6-methoxy-4-[7-[2-[(3S)-3-methylmorpholin-4-yl]ethoxy]imidazo[1,2-a]pyridin-3-yl]benzamide]",+++ (>4.5),100 to 1000,
"COc1cc(-c2cnc3cc(OCCN(C)C)ccn23)cc2c1C(=O)N(CC(F)(F)F)CC2 [Cpd 18, 6-[7-[2-(dimethylamino)ethoxy]imidazo[1,2-a]pyridin-3-yl]-8-methoxy-2-(2,2,2-trifluoroethyl)-3,4-dihydroisoquinolin-1-one]",,,IL-10 (IL-10; 3 mg/kg): −; IL-10 (IL-10; 10 mg/kg): −; TNFα (TNFα; 3 mg/kg): −; TNFα (TNFα; 10 mg/kg): −
"COc1cc(-c2cnc3cc(OCCCN4CC5(COC5)C4)ccn23)cc(OC(F)F)c1C(=O)NC1CC1 [compound 273, N-cyclopropyl-2-(difluoromethoxy)-6-methoxy-4-[7-[3-(2-oxa-6-azaspiro[3.3]heptan-6-yl)propoxy]imidazo[1,2-a]pyridin-3-yl]benzamide]",++ (>1.5-4.5),100 to 1000,
"COc1cc(-c2cnc3cc(OCCCN4CCC5(CC4)CNC(=O)O5)ccn23)cc(OC(F)F)c1C(=O)NC1CC1 [Cpd 324, N-cyclopropyl-2-(difluoromethoxy)-6-methoxy-4-[7-[3-(2-oxo-1-oxa-3,8-diazaspiro[4.5]decan-8-yl)propoxy]imidazo[1,2-a]pyridin-3-yl]benzamide]",++ (>1.5-4.5),100 to 1000,
"COc1cc(-c2cnc3cc(OCC4(F)CN(C(=O)OC(C)(C)C)C4)ccn23)cc2c1C(=O)N(CC(F)(F)F)CC2 [compound 248, tert-butyl 3-fluoro-3-[[3-[8-methoxy-1-oxo-2-(2,2,2-trifluoroethyl)-3,4-dihydroisoquinolin-6-yl]imidazo[1,2-a]pyridin-7-yl]oxymethyl]azetidine-1-carboxylate]",+++ (>4.5),100 to 1000,
"COc1cc(-c2cnc3cc(OC[C@H]4COCCO4)ccn23)cc2c1C(=O)NCC2 [compound 242, 6-[7-[[(2R)-1,4-dioxan-2-yl]methoxy]imidazo[1,2-a]pyridin-3-yl]-8-methoxy-3,4-dihydro-2H-isoquinolin-1-one]",++ (>1.5-4.5),100 to 1000,
"COc1cc(-c2cnc3cc(OCCN(C)C)ccn23)cc(OC(F)F)c1C(=O)NC1CC1 [Cpd 6, N-cyclopropyl-2-(difluoromethoxy)-4-[7-[2-(dimethylamino)ethoxy]imidazo[1,2-a]pyridin-3-yl]-6-methoxy-benzamide]",+++ (>4.5),100 to 1000,IL-10 (IL-10; 3 mg/kg): −; IL-10 (IL-10; 10 mg/kg): +; TNFα (TNFα; 3 mg/kg): −; TNFα (TNFα; 10 mg/kg): +
"COc1cc(-c2cnc3cc(OCCN4CCOCC4)ccn23)cc2c1C(=O)N(CC(F)(F)F)CC2 [Cpd 88, 8-methoxy-6-[7-(2-morpholinoethoxy)imidazo [1,2-a]pyridin-3-yl]-2-(2,2,2-trifluoroethyl)-3,4-dihydroisoquinolin-1-one]",+++ (>4.5),,"IL-10 (IL-10; 3 mg/kg): −; IL-10 (IL-10; 10 mg/kg): +; IL-10 (IL-10; 30 mg/kg): +; TNFα (TNFα; 3 mg/kg): +; TNFα (TNFα; 10 mg/kg): +; TNFα (TNFα; 30 mg/kg): +; EC50 ([2]; Homo sapiens, Monocyte): 100 to 1000 nM"
"COc1cc(-c2cnc3cc(OCc4nncn4C)ccn23)cc(OC(F)F)c1C(=O)NC1CC1 [compound 227, N-cyclopropyl-2-(difluoromethoxy)-6-methoxy-4-[7-[(4-methyl-1,2,4-triazol-3-yl)methoxy]imidazo[1,2-a]pyridin-3-yl]benzamide]",++ (>1.5-4.5),1000 to 5000,

# From patent US12264156B2, “Compounds and pharmaceutical compositions thereof for the treatment of diseases” (GALAPAGOS NV, priority 2018, dated 2025)
